These results are taken from US4988604A, “High contrast photographic element including an aryl sulfonamidophenyl hydrazide containing both thio and ethyleneoxy groups” (Eastman Kodak Company, priority 1990, dated 1991).

Assay [1] can be described thus: photographic performance of coatings containing nucleator: relative speed, dot quality, contrast (Example 1). As to conditions: for photographic speed (in words): comparison of tests of Table I; for Relative Speed: incorporated booster 64.6 mg/m^2, 1 minute at 35° C., pH 10.5; for DQ (contact screen exposed halftone dot quality): rated on a scale, 5 is excellent. Here is the method: Each coating used in obtaining the data provided in this example was prepared on a polyester support, using a monodispersed 0.24 μm AgBrI (2.5 mol % iodide) iridium-doped emulsion at 3.51 g/m^2 Ag, 2.54 g gel/m^2, and 1.08 g latex/m^2 where the latex is a copolymer of methyl acrylate, 2-acrylamido-2-methylpropane sulfonic acid, and 2-acetoacetoxyethylmethylacrylate. The silver halide emulsion was spectrally sensitized with 214 mg/Ag mol of anhydro-5,5'-dichloro-9-ethyl-3,3'-di-(3-sulfopropyl) oxacarbocyanine hydroxide, triethylene salt and the emulsion layer was overcoated with gelatin containing polymethylmethacrylate beads. The nucleating agent was added as a methanol solution to the emulsion melts at a level in millimoles (mM) per mole of silver as hereinafter indicated. An "incorporated booster" was added as a methanol solution in an amount of 64.6 milligrams per square meter of photographic element. The compound employed as the "incorporated booster" is represented by the formula: [drawing 8] where Pr represents n-propyl. Coatings were exposed for five seconds to a 3000° K. tungsten light source and processed for 1 minute at 35° C. in the developer solution.
To prepare the developer solution, a concentrate was prepared from the following ingredients:
The concentrate was diluted at a ratio of one part of concentrate to two parts of water to produce a working strength developing solution with a pH of 10.5.
*DQ = contact screen exposed halftone dot quality rated on a scale where
is poor and 5 is excellent.

A short description of assay [2]: chemical spread: dot diameter growth rate of coatings containing nucleator (Example 2). As to conditions: for Dot Diameter Growth Rate: 10 to 60 seconds development. An excerpt: Coatings similar to those described in Example 1 were examined for differences in the degree of image spreading, so-called chemical spread, that is inherent to high contrast, nucleation processes. The films were exposed 5 seconds with 3000K tungsten light through a 90%, 52 line per centimeter, round dot tint mask to produce hard 10% dots upon development for about 10 seconds in the developer described in Example 1. With extended development beyond 10 seconds (typical development times in practice are 30 to 60 seconds), the nucleation process entails fogging of unexposed silver halide at the dot edges and, in turn, causes the dot to grow in size. The growth of the dot was measured by monitoring the change in density of the developing tint with time from 10 to 60 seconds and converting the measured density to the equivalent dot diameter using the well known relation between integrated halftone density and dot size.

With `CCCCCCCCOCCOCCOCCOCCSCC(=O)Nc1c(C)ccc(S(=O)(=O)Nc2ccc(NNC=O)cc2)c1C` [Compound I-6], the “screen-exposed halftone dot quality (in words)” value in assay [1] (Example 1) is recorded as “significant improvement in the screen-exposed halftone dot quality”. Moreover, the “photographic speed (in words)” value in assay [1] is recorded as “the same speed was achieved in Test 1 even though the molar concentration of nucleator was one quarter of that used in Control Test B”. The “Relative Speed” value in assay [1] (nucleator 0.5 mM/Ag mole) is 100; in assay [1] (nucleator 0.75 mM/Ag mole), 107. In addition, the “DQ (contact screen exposed halftone dot quality)” value (shortened to “DQ”) in assay [1] (nucleator 0.5 mM/Ag mole) and in assay [1] (nucleator 0.75 mM/Ag mole) was 4.5 in each case. For the same compound, the “dot diameter growth rate or chemical spread (in words)” value in assay [2] (Test 4 (one quarter the concentration) compared with Control Test A^1) was “much less”. Moreover, the entries for the “Dot Diameter Growth Rate” value in assay [2] (nucleator 0.50 mM/Ag mole) and in assay [2] (nucleator 1.0 mM/Ag mole) were 0.30 micrometers/sec and 0.41 micrometers/sec, respectively.
For the compound `CC(C)c1ccc(C(C)C)c(S(=O)(=O)Nc2ccc(NNC=O)cc2)c1` [Control A], in assay [1] (nucleator 1.0 mM/Ag mole), the “Relative Speed” value is recorded as 87 and the “DQ” value was found to be 3.5. Also, in assay [1] (nucleator 2.0 mM/Ag mole), the “Relative Speed” value was found to be 100 and the “DQ” value is 4. The “Dot Diameter Growth Rate” value in assay [2] (nucleator 2.0 mM/Ag mole) turned out to be 0.60 micrometers/sec.
As for `CCCCCCCCSCC(=O)Nc1c(C)ccc(S(=O)(=O)Nc2ccc(NNC=O)cc2)c1C` [Control C], the “photographic speed (in words)” value in assay [1] is reported as “significantly lowers the photographic speed relative to the non-thio control of Test A”. In assay [1] (nucleator 1.0 mM/Ag mole), the “Relative Speed” value is on record as 68 and the “DQ” value is 3.5. Further, in assay [1] (nucleator 2.0 mM/Ag mole), the “Relative Speed” value is 68 and the “DQ” value is recorded as 3.5.
